Source: publication PMC11207040, “Synthesis and Biological Studies of New Temporin A Analogs Containing Unnatural Amino Acids in Position 7” (Pharmaceutics, 2024)
≈ marks a conversion by molar mass, not a printed value. Where “and” joins values, the source holds several entries; their conditions need not be identical. Equal values may be shown once. Read-outs that look alike come from different tables or passages of the source. Non-standard residues stand in square brackets, D forms with d. Residues, ends and D or L forms follow the SMILES beside them. Cit = NC(=O)NCCC[C@H](N)C(=O)O; Dap = NC[C@H](N)C(=O)O

Experiments:
[1] = system: Bacillus subtilis NBIMCC 3562; type: cell-based; conditions: for Inhibition effect, B. subtilis 3562: zone of peptide over zone of antibiotic x 100; for Inhibition zone, B. subtilis 3562: 20 µL per disc, 24 h
Protocol: (§1) The parent peptide Temporin A and the novel analogs were subjected to tests against model strains Escherichia coli NBIMCC 8785, Bacillus subtilis NBIMCC 3562, Arthrobacter oxydans NBIMCC 9333, Pseudomonas aeruginosa NBIMCC 3700, and Candida albicans NBIMCC 74, for the assessment of their antimicrobial activity. The strains were acquired from the National Bank for Industrial Microorganisms and Cell Cultures (NBIMCC, Bulgaria). The strain E. coli 8785 was cultured in Luria-Bertani broth (LB, HiMedia, Mumbai, India); B. subtilis 3562—in nutrient broth (NB, HiMedia, Mumbai, India); A. oxydans 9333; P. aeruginosa 3700—in meat peptone agar (MPA) medium; and C. albicans 74—in yeast mold (YM) medium. An incubator shaker ES-20/60 (Biosan, Latvia) was used for the cultivation and was set to 30 °C for B. subtilis 3562, A. oxydans 9333, and C. albicans 74; and 37 °C for E. coli 8785 and P. aeruginosa 3700, with a 24 h shaking period at 120 rpm. The microbial cultures were then adjusted to a turbidity of 0.5 McFarland using a Grant-bio DEN-1B densitometer (Grant Instruments, Royston, UK) for further use.
(§2) The disk-diffusion method was used as an additional method, with the aim of determining the percent inhibition of the tested samples against the model strains. Sterile plates with LB/NB/MPA/YM agar medium were inoculated on the surface with 100 μL from each microbial culture and incubated at 30 or 37 °C for 30 min, for the suspension to penetrate the agar. After that, sterile paper discs (HiMedia, Mumbai, India) with a diameter of 6 mm were soaked with 20 µL of the peptide solutions with concentrations of 1.4 mg/mL and 10 mg/mL and placed on the agar surface. Sterile paper discs with 10% EtOH/H2O were used as a negative control, and the corresponding strain antibiotic disks (HiMedia, Mumbai, India)—as a positive control. The incubation of the plate was performed at 30/37 °C for 24 h. The antimicrobial activity was analyzed by measuring the diameter of the inhibition zones in mm. The experiments were conducted in triplicates, and the average values for the percent of inhibition as a correlation between the inhibition zone of the peptides over the inhibition zone of the antibiotic multiplied by 100 were calculated.

MCF-12F cells = assay: MTT antiproliferative assay, MCF-12F; type: cell-based, human; conditions: 72 h, non-tumorigenic cell line, read-out: Mean IC50 ± SD, MCF-12F
Protocol: (§3) The cell lines BALB 3T3 (mouse embryonic fibroblasts) and MCF-12F (human breast epithelial cells) were used as models for healthy tissue. The MCF-7 and MDA-MB-231 cell lines were used as in vitro models for luminal A- and basal B-type breast cancer, respectively. Cell lines were obtained from the American Type Cultures Collection (ATCC, Manassas, VA, USA). Cells were cultured in Dulbecco modified Eagle’s medium (DMEM) supplemented with 10% fetal bovine serum (FBS), 100 U/mL penicillin, and 0.1 mg/mL streptomycin (Sigma-Aldrich, Schnelldorf, Germany) in an incubator at 37 °C, 5% CO2 and 95% humidity. Plastic flasks 75 cm^2 (Biologix, Lenexa, KS, USA) were used to grow the cells.
(§4) The antiproliferative activity testing was performed on cell cultures using the MTT-dye reduction assay. This assay is based on the metabolism of MTT to insoluble formazan by mitochondrial reductases. The formazan concentration can be determined spectrophotometrically. The measured absorption is an indicator of cell viability. Cell lines (MCF-12F, MCF-7 and MDA-MB-231) were used in the experiments. Cells were plated at a density of 1 × 10^3 cells/100 µL in each well of 96-well microplates and allowed to adhere for 24 h before treatment with test compounds. A concentration range from 4 to 1000 μM was applied for 72 h. The formazan absorption was registered using a microplate reader at λ = 540 nm. Antiproliferative activities were expressed as IC50 values (concentrations required for 50% inhibition of cell growth).

MCF-7 cells = assay: MTT antiproliferative assay, MCF-7; type: cell-based, human; conditions: for IC50: MTT, 72 h, read-out: Mean IC50 ± SD, MCF-7; for SI (Selectivity Index), MCF-7: SI = IC50 MCF-12F/IC50 tumor cells
Protocol: as §3, §4

[2] = system: Arthrobacter oxydans NBIMCC 9333; type: cell-based; conditions: 24 h
Protocol: as §1
(§5) The minimal inhibitory concentration (MIC) of the peptides was determined using the broth dilution method. Stock solutions of the peptides with a concentration of 10 mg/mL in 10% EtOH/H2O were prepared. Suspensions of the bacteria in the corresponding media were added to 96-well U-shaped bottom polystyrene plates (Deltalab S.L., Spain) and exposed to the peptide in the concentration range from 0 to 320 µg/mL, and a 10% EtOH/H2O control, diluted using the same scheme as the peptides, was also used. The plates were then incubated under aerobic conditions at the corresponding temperature for 24 h. The MIC (µg/mL) was assumed as the lowest concentration of the antimicrobial, where there was visible inhibition of the strain. The absorbance was measured at 630 nm (Microplate reader PKL PPC 142, Paramedical srl, Salerno, Italy). To determine the minimal bactericidal concentration (MBC) and minimal fungicidal concentration (MFC), 10 μL from concentrations greater than or equal to the MIC was placed on the corresponding solid nutrient medium. The Petri dishes were then incubated at 30 or 37 °C for 24 h. All experiments were conducted in a triplicate.

BALB 3T3 clone A31 cells = assay: 3T3 NRU cytotoxicity/phototoxicity test; type: cell-based, mouse; conditions: PIF = CC50 −Irr/CC50 +Irr; PIF < 2 = not phototoxic
Protocol: as §3
(§6) The cytotoxicity/phototoxicity testing was performed as described by the OECD Guidelines for the Testing of Chemicals, Section 4, Test No. 432: In Vitro 3T3 NRU Phototoxicity Test. BALB 3T3, clone A31 cells were grown in 75 cm^2 tissue culture flasks in DMEM high-glucose (4.5 g/L), 10% FBS, and antibiotics at 37.5 °C, in a humidified atmosphere under 5% CO2. Cells were plated at 1 × 10^4 cells / 100 μL culture medium in each well of 96-well microplates and allowed to adhere for 24 h before treatment with test compounds. Peptides were dissolved in DMSO and diluted with culture medium to working concentrations from 4 to 1000 μM. In phototoxicity tests, 96-well plates were irradiated (+Irr) with a dose of 2.4 J/cm^2 using an artificial solar light simulator Helios-iO (SERIC Ltd., Tokyo, Japan), and the cells were incubated for an additional 24 h. After treatment with a Neutral Red medium, washing, and application of the NR Desorb solution, the absorption was measured on a microplate reader at a wavelength of 540 nm. Cytotoxicity/phototoxicity was expressed as CC50 values (concentrations required for 50% cytotoxicity).

[3] = 3T3 NRU cytotoxicity/phototoxicity test; type: cell-based, mouse; conditions: mouse; for CC50: cytotoxicity, no irradiation, BALB 3T3 clone A31, Neutral Red uptake, read-out: Mean CC50 ± SD, −Irr; for CC50 at 24 h: phototoxicity, irradiated 2.4 J/cm^2, BALB 3T3 clone A31, Neutral Red uptake, read-out: Mean CC50 ± SD, +Irr
Protocol: as §3, §6

[4] = system: Candida albicans NBIMCC 74; type: cell-based; conditions: for Inhibition zone, C. albicans 74: 20 µL per disc, 24 h
Protocol: as §1, §2

[5] = system: Pseudomonas aeruginosa NBIMCC 3700; type: cell-based; conditions: for Inhibition effect, P. aeruginosa 3700: zone of peptide over zone of antibiotic x 100; for Inhibition zone, P. aeruginosa 3700: 20 µL per disc, 24 h
Protocol: as §1, §2

[6] = system: Arthrobacter oxydans NBIMCC 9333; type: cell-based; conditions: for Inhibition effect, A. oxydans 9333: zone of peptide over zone of antibiotic x 100; for Inhibition zone, A. oxydans 9333: 20 µL per disc, 24 h
Protocol: as §1, §2

[7] = system: Escherichia coli NBIMCC 8785; type: cell-based; conditions: for Inhibition zone, E. coli 8785: 20 µL per disc, 24 h
Protocol: as §1, §2

MDA-MB-231 cells = assay: MTT antiproliferative assay, MDA-MB-231; type: cell-based, human; conditions: for IC50: MTT, 72 h, read-out: Mean IC50 ± SD, MDA-MB-231; for SI (Selectivity Index), MDA-MB-231: SI = IC50 MCF-12F/IC50 tumor cells
Protocol: as §3, §4

[8] = system: Bacillus subtilis NBIMCC 3562; type: cell-based; conditions: broth dilution, 0 to 320 µg/mL, 24 h; NI = no inhibition monitored
Protocol: as §1, §5

[9] = 10 µg/disk, positive control on the plate of the peptide of that line

Row | Compound | IC50 (MCF-12F cells) | IC50 (MCF-7 cells) | SI (Selectivity Index), MCF-7 (MCF-7 cells) | PIF (photo irritation factor) (BALB 3T3 clone A31 cells) | CC50 [3] | CC50 at 24 h [3] | Inhibition zone, C. albicans 74 ([4]; peptide 1.4 mg/mL) | Inhibition zone, C. albicans 74 ([4]; peptide 10 mg/mL) | Inhibition effect, P. aeruginosa 3700 ([5]; 1.4 mg/mL) | Inhibition effect, P. aeruginosa 3700 ([5]; 10 mg/mL) | Inhibition zone, P. aeruginosa 3700 ([5]; peptide 1.4 mg/mL) | Inhibition zone, P. aeruginosa 3700 ([5]; peptide 10 mg/mL) | Inhibition effect, A. oxydans 9333 ([6]; 1.4 mg/mL) | Inhibition effect, A. oxydans 9333 ([6]; 10 mg/mL) | Inhibition zone, A. oxydans 9333 ([6]; peptide 1.4 mg/mL) | Inhibition zone, A. oxydans 9333 ([6]; peptide 10 mg/mL) | Inhibition zone, E. coli 8785 ([7]; peptide 1.4 mg/mL) | Inhibition zone, E. coli 8785 ([7]; peptide 10 mg/mL) | Inhibition effect, B. subtilis 3562 ([1]; 1.4 mg/mL) | Inhibition effect, B. subtilis 3562 ([1]; 10 mg/mL) | also measured
1 | O=C(N[C@H](CO)[C@H](O)c1ccc([N+](=O)[O-])cc1)C(Cl)Cl [Chloramphenicol, reference compound] | – | – | – | – | – | – | – | – | – | – | – | – | – | – | – | – | – | – | – | – | Inhibition zone, B. subtilis 3562, antibiotic control ([1]; 30 µg/disk, positive control on the plate of the peptide of that line): 26.0 mm and 25.0 mm
2 | CC[C@H](C)[C@H](NC(=O)CNC(=O)[C@H](CO)NC(=O)[C@H](CC(C)C)NC(=O)[C@@H](NC(=O)[C@H](CCCNC(N)=O)NC(=O)CNC(=O)[C@@H](NC(=O)[C@H](CC(C)C)NC(=O)[C@@H]1CCCN1C(=O)[C@H](CC(C)C)NC(=O)[C@@H](N)Cc1ccccc1)[C@@H](C)CC)C(C)C)C(=O)N[C@@H](CC(C)C)C(N)=O [DTCit, FLPLIG-Cit-VLSGIL-NH2] (H-FLPLIG[Cit]VLSGIL-NH2; N-terminus assumed) | 301 ± 10.5 µM | 150 ± 6.94 µM | 2.01 | 1.07 | 356 ± 7.64 µM | 332 ± 12.3 µM | 0.0 mm | 0.0 mm | 0.0% | 0.0% | 0.0 mm | 0.0 mm | 0.0% | 0.0% | 0.0 mm | 0.0 mm | 0.0 mm | 0.0 mm | 0.0% | 0.0% | MIC, A. oxydans 9333 ([2]; broth dilution, 0 to 320 µg/mL, NI = no inhibition monitored): 160 µg/mL (≈ 114 µM); MBC, A. oxydans 9333 ([2]; plated from concentrations ≥ MIC): 160 µg/mL (≈ 114 µM); Inhibition zone, B. subtilis 3562 ([1]; peptide 1.4 mg/mL): 0.0 mm; Inhibition zone, B. subtilis 3562 ([1]; peptide 10 mg/mL): 0.0 mm; IC50 (MDA-MB-231 cells): 335 ± 4.37 µM; SI (Selectivity Index), MDA-MB-231 (MDA-MB-231 cells): 0.90
3 | CC[C@H](C)[C@H](NC(=O)CNC(=O)[C@H](CO)NC(=O)[C@H](CC(C)C)NC(=O)[C@@H](NC(=O)[C@H](CN)NC(=O)CNC(=O)[C@@H](NC(=O)[C@H](CC(C)C)NC(=O)[C@@H]1CCCN1C(=O)[C@H](CC(C)C)NC(=O)[C@@H](N)Cc1ccccc1)[C@@H](C)CC)C(C)C)C(=O)N[C@@H](CC(C)C)C(N)=O [DTDap, FLPLIG-Dap-VLSGIL-NH2] (H-FLPLIG[Dap]VLSGIL-NH2; N-terminus assumed) | 630 ± 9.97 µM | 473 ± 16.2 µM | 1.33 | 0.99 | 924 ± 21.6 µM | 933 ± 20.7 µM | 0.0 mm | 0.0 mm | 0.0% | 51.8% | 0.0 mm | 8.8 ± 0.8 mm | 0.0% | 53.0% | 0.0 mm | 9.8 ± 0.3 mm | 0.0 mm | 0.0 mm | 0.0% | 0.0% | MIC, B. subtilis 3562 [8]: 320 µg/mL (≈ 241 µM); Inhibition zone, B. subtilis 3562 ([1]; peptide 1.4 mg/mL): 0.0 mm; Inhibition zone, B. subtilis 3562 ([1]; peptide 10 mg/mL): 0.0 mm; IC50 (MDA-MB-231 cells): 581 ± 17.5 µM; SI (Selectivity Index), MDA-MB-231 (MDA-MB-231 cells): 1.09
4 | CNC(C)C1CCC(N)C(OC2C(N)CC(N)C(OC3OCC(C)(O)C(NC)C3O)C2O)O1 (stereo not shown) [Gentamicin, reference compound] | – | – | – | – | – | – | – | – | – | – | – | – | – | – | – | – | – | – | – | – | Inhibition zone, P. aeruginosa 3700, antibiotic control [5, 9]: 17.0 mm and 16.0 mm; Inhibition zone, E. coli 8785, antibiotic control [7, 9]: 18.0 mm
5 | CCC(C)n1ncn(-c2ccc(N3CCN(c4ccc(OCC5COC(Cn6cncn6)(c6ccc(Cl)cc6Cl)O5)cc4)CC3)cc2)c1=O (stereo not shown) [Itraconazole, reference compound] | – | – | – | – | – | – | – | – | – | – | – | – | – | – | – | – | – | – | – | – | Inhibition zone, C. albicans 74, antibiotic control [4, 9]: 15.0 mm and 14.0 mm
